Experimental data reported in patent publication US12667566B2, “Combination therapy of GPR119 agonists and DPP-4 inhibitors” (MANKIND PHARMA LTD., priority 2019, dated 2026).

Key:
blood glucose = assay: Oral glucose tolerance test (OGTT); format: in vivo; conditions: male Sprague Dawley rats, glucose load 2 g/kg
Description: FIG. 1. Oral glucose tolerance test (OGTT) of GPR119 agonist Formula 1A in male Sprague Dawley rats. Formula 1A was administered to the rats and blood glucose was monitored post 30 min of dose administration (0-time point). After glucose administration (2 g/kg/10 ml), glucose levels were estimated at different time points (5, 15, 30, 60 & 120 min) and compared to vehicle group. Data was analysed by One-Way ANOVA followed by Dunnett's Multiple Comparison Test. *P<0.05, **P<0.01 & ***P<0.001 vs vehicle control. Vehicle used was 0.5% Tween 80 and 99.5% NaCMC in water (0.5% w/v).
OGTT study is conducted in male Sprague dawley rats. […] Vehicle (0.5% Tween 80 and 99.5% NaCMC in water (0.5% w/v) was administered to control animals and remaining groups were administered with test compound prepared in vehicle at respective doses orally. Blood samples were collected immediately after test compound administration (which was −30 min time point). Blood glucose was monitored post 30 min of dose administration (which was a zero min time point). All animals received 2 g/kg/10 ml (20%) of Glucose solution orally. After glucose administration, glucose levels were estimated at different time points (5, 15, 30, 60 & 120 min). Estimation of blood glucose level was done by strip method. […] Blood glucose AUC was calculated from the samples collected at respective time points. […]

active GLP-1 = assay: Active GLP-1 estimation; format: in vivo; conditions: male Sprague Dawley rats, oral
Description: FIG. 2. Effect of GPR119 agonist Formula 1A on active GLP-1 levels in male Sprague Dawley rats. Formula 1A was administered to the rats and GLP-1 levels were estimated at different time points (0, 5, 15, 30 & 60 min) and compared to vehicle group. Data was analysed by One-Way ANOVA followed by Dunnett's Multiple Comparison Test. *P<0.05, **P<0.01, ***P<0.001 vs vehicle control. Vehicle used was 0.5% Tween 80 and 99.5% NaCMC in water (0.5% w/v).
GLP-1 estimation is conducted in male Sprague dawley rats. Animals of 8-10 weeks old were kept for overnight fasting (only water was provided ad libitum). […] were randomized based on basal glucose values into four different groups. Vehicle (0.5% Tween 80 and 99.5% NaCMC in water (0.5% w/v) was administered to control animals and remaining groups were administered with test compound prepared in vehicle at respective doses orally.
For active GLP-1 estimation, blood was collected by retro orbital puncture under isoflurane anesthesia. Active GLP-1 levels were estimated from the collected plasma at −30, 0, 5, 15, 30 & 60 min time points. Blood collection (Approximately 400-500 μl) was done by retro orbital puncture under isoflurane anesthesia with the help of DPP-4 inhibitor (#DPP4-010, Merck-Millipore) rinsed capillaries and collected into pre-coated Eppendorf (10 μl/ml of blood) with DPP-4 inhibitor.

| SMILES | glucose reduction compared to vehicle (blood glucose; 10 mg/kg) [%] | increase in active GLP-1 secretion compared to vehicle (active GLP-1; 10 mg/kg/wt) [%] | glucose reduction compared to vehicle (blood glucose; 3 mg/kg) [%] | increase in active GLP-1 secretion compared to vehicle (active GLP-1; 3 mg/kg/wt) [%] |
| --- | --- | --- | --- | --- |
| CCc1cnc(N2CCC([C@H](C)Oc3nn4cc(-c5ccc(S(C)(=O)=O)cc5F)nc4s3)CC2)nc1 [Formula IA] | 16 | 123 | – | – |
| N[C@@H](CC(=O)N1CCn2c(nnc2C(F)(F)F)C1)Cc1cc(F)c(F)cc1F [sitagliptin, (3R)-3-amino-1-[3-(trifluoromethyl)-5,6,7,8-tetrahydro-5H-[1,2,4]triazolo-[4,3-a]pyrazin-7-yl]-4-(2,4,5-trifluorophenyl) butan-1-one] | – | – | 15 | 253 |
